# Results taken from paper PMC4979471 (Cell Death Discovery, 2015).
# Read-outs that look alike come from different tables or passages of the source.
# Experiments:
# Assay in all cases: Kinase selectivity, P33-radiolabeled assay
# Type in all cases: biochemical
# Settings in all cases: 10 μM ATP
# SRMS = target: T1, SRMS (Homo sapiens, UniProt Q9H3Y6)
# T1 construct: purchased Reaction Biology Corp
# Outline: (§1)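 ATP at 10 μM; test article at 10 μM, single point, two replicates. Output is activity as % of DMSO.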
# SRPK1 = target: T2, SRPK1 (Homo sapiens, UniProt Q96SB4)
# T2 construct: purchased Reaction Biology Corp
# T2 sequence (Q96SB4 whole entry): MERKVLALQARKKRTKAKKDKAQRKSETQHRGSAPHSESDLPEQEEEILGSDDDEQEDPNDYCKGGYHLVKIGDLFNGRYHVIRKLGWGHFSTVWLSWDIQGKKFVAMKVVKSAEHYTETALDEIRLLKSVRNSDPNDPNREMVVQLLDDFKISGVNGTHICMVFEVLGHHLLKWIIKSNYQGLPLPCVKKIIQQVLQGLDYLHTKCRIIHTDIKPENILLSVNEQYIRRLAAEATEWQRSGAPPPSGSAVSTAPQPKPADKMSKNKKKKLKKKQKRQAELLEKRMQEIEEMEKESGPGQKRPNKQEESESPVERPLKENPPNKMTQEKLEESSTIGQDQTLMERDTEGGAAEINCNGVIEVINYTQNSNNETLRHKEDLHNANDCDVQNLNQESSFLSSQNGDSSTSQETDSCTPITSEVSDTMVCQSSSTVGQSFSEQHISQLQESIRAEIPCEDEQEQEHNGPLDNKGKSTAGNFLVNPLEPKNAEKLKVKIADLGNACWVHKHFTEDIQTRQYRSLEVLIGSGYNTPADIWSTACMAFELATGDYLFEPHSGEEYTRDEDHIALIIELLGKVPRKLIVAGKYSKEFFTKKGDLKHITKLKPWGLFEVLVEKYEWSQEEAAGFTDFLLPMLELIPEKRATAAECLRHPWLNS
# Outline: as §1
# AXL = target: T3, AXL (Homo sapiens, UniProt P30530)
# T3 construct: purchased Reaction Biology Corp
# T3 sequence (P30530 26-894): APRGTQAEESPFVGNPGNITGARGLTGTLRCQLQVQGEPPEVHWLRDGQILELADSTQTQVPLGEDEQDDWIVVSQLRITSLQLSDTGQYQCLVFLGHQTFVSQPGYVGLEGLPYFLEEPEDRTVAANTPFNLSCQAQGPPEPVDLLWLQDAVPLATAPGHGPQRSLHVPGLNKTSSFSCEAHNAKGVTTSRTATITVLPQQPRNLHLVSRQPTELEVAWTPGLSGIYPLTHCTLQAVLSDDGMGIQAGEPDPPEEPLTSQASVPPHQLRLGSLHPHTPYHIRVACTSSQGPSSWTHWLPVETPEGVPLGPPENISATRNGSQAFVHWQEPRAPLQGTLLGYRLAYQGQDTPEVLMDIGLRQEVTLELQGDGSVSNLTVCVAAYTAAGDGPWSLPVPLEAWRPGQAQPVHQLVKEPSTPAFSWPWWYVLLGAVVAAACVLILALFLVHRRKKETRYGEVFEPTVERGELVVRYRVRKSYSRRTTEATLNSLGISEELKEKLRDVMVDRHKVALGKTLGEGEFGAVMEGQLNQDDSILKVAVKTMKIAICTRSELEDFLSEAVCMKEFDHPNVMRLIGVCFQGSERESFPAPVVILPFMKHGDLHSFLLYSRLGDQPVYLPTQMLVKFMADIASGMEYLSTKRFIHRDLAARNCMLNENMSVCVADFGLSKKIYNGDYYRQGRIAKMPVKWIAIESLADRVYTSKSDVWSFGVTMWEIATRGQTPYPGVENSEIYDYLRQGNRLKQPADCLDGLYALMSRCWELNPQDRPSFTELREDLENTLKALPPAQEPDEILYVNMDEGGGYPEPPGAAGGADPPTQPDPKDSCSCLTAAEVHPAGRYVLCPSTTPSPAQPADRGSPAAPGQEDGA
# Outline: as §1
# DLK/MAP3K12 = target: T4, DLK/MAP3K12 (Homo sapiens, UniProt Q12852)
# T4 construct: purchased Reaction Biology Corp
# T4 sequence (Q12852 1-859): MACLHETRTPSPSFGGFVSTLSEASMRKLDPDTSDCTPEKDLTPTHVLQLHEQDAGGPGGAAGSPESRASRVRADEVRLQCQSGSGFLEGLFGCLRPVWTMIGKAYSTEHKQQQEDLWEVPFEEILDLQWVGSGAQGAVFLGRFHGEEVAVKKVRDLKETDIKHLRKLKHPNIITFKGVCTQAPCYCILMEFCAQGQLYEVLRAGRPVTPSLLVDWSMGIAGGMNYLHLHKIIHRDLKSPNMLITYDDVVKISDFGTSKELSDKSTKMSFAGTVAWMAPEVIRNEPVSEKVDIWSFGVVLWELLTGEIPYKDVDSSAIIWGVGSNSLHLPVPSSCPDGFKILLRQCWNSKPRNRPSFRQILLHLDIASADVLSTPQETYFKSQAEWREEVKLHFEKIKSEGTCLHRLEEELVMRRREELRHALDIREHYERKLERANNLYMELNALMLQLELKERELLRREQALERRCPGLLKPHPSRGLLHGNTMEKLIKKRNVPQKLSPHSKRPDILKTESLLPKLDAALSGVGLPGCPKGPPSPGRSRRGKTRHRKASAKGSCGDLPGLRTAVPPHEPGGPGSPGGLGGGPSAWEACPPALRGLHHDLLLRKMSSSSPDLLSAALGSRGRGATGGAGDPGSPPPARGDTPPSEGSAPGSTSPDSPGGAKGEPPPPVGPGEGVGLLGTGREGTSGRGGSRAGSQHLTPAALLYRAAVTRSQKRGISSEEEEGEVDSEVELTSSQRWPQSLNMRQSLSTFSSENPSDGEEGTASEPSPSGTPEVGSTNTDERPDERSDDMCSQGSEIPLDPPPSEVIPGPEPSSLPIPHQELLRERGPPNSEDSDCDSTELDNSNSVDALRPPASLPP
# Outline: as §1
# CAMKK1 = target: T5, CAMKK1 (Homo sapiens, UniProt Q8N5S9)
# T5 construct: purchased Reaction Biology Corp
# T5 sequence (Q8N5S9 whole entry): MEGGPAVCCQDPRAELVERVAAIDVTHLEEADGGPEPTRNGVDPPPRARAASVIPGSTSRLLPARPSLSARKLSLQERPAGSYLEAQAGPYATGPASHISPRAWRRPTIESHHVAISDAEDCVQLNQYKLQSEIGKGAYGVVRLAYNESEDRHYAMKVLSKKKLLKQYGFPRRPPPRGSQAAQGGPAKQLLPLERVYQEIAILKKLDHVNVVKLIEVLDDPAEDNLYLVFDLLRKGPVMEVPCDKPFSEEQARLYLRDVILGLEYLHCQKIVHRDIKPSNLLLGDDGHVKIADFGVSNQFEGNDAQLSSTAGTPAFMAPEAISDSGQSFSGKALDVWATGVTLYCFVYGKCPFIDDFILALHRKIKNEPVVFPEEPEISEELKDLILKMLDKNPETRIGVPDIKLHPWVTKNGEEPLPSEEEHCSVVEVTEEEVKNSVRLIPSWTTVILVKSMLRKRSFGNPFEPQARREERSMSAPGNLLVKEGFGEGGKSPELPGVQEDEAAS
# Outline: as §1
# ACK1 = target: T6, ACK1 (Homo sapiens, UniProt Q07912)
# T6 construct: purchased Reaction Biology Corp
# T6 sequence (Q07912 whole entry): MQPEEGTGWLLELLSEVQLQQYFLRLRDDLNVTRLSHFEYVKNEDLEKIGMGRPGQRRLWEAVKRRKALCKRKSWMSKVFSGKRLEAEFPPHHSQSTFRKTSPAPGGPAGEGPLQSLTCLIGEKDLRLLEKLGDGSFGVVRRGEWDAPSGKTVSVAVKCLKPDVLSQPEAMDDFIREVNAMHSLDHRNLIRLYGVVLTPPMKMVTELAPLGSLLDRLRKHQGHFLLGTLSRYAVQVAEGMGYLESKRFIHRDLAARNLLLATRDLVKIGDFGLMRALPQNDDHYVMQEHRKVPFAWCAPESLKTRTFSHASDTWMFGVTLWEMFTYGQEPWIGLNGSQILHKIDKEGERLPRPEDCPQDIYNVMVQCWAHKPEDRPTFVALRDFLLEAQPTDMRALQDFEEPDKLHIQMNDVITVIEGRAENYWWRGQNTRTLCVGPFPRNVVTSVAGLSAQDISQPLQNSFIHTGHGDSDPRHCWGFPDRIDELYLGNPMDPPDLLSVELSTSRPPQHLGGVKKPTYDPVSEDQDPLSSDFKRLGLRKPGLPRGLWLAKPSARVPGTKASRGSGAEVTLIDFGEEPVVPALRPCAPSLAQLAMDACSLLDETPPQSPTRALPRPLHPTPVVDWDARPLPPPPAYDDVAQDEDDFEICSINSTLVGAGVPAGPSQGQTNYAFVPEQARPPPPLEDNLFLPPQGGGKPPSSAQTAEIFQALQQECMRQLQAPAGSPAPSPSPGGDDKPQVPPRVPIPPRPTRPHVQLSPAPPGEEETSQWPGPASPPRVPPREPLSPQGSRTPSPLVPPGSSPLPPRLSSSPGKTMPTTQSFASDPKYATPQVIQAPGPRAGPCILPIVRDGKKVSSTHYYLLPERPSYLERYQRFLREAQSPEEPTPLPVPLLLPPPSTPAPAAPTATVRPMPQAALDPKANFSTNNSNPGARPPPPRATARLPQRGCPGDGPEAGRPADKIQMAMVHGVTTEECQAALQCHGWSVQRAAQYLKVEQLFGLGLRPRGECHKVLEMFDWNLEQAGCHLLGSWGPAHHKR
# Outline: as §1
# [1] = read-out: % Enzyme Activity (relative to DMSO controls) AVG
# [2] = read-out: % Enzyme Activity (relative to DMSO controls) Data 1
# [3] = read-out: % Enzyme Activity (relative to DMSO controls) Data 2
# T1 sequence (Q9H3Y6 whole entry): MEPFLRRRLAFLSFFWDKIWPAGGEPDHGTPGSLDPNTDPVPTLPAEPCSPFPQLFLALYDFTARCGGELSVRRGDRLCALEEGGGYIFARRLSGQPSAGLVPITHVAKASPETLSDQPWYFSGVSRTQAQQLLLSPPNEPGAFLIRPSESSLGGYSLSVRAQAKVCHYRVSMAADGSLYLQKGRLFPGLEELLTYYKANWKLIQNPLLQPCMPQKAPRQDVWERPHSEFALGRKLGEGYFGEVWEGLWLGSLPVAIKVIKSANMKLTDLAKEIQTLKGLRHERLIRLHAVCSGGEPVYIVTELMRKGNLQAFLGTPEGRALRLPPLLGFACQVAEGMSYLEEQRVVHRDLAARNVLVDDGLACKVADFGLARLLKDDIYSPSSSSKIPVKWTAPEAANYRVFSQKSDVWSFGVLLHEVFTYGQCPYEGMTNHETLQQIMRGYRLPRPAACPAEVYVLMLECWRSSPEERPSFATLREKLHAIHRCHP
compound,measurement,setting,value
CC(C)(C)C(=O)N1N=CC[C@H]1c1ccccc1 [GSK′963],remaining activity at 10 µM,SRMS; [1],101%
same,remaining activity at 10 µM,SRMS; [2],98.6%
same,remaining activity at 10 µM,SRMS; [3],103%
same,remaining activity at 10 µM,SRPK1; [1],97.7%
same,remaining activity at 10 µM,SRPK1; [2],93.2%
same,remaining activity at 10 µM,SRPK1; [3],102%
same,remaining activity at 10 µM,AXL; [1],92.9%
same,remaining activity at 10 µM,AXL; [2],91.2%
same,remaining activity at 10 µM,AXL; [3],94.6%
same,remaining activity at 10 µM,DLK/MAP3K12; [1],104%
same,remaining activity at 10 µM,DLK/MAP3K12; [2],106%
same,remaining activity at 10 µM,DLK/MAP3K12; [3],102%
same,remaining activity at 10 µM,CAMKK1; [1],103%
same,remaining activity at 10 µM,CAMKK1; [2],105%
same,remaining activity at 10 µM,CAMKK1; [3],101%
same,remaining activity at 10 µM,ACK1; [1],82.3%
same,remaining activity at 10 µM,ACK1; [2],84.2%
same,remaining activity at 10 µM,ACK1; [3],80.3%
